The values below come from ChEMBL document CHEMBL5291721, “A preclinical secondary pharmacology resource illuminates target-adverse drug reaction associations of marketed drugs” (Nat Commun, 2023).

Assay [1] concerns the target T1, Androgen receptor (Rattus norvegicus, UniProt P15207).
T1 sequence (P15207 whole entry): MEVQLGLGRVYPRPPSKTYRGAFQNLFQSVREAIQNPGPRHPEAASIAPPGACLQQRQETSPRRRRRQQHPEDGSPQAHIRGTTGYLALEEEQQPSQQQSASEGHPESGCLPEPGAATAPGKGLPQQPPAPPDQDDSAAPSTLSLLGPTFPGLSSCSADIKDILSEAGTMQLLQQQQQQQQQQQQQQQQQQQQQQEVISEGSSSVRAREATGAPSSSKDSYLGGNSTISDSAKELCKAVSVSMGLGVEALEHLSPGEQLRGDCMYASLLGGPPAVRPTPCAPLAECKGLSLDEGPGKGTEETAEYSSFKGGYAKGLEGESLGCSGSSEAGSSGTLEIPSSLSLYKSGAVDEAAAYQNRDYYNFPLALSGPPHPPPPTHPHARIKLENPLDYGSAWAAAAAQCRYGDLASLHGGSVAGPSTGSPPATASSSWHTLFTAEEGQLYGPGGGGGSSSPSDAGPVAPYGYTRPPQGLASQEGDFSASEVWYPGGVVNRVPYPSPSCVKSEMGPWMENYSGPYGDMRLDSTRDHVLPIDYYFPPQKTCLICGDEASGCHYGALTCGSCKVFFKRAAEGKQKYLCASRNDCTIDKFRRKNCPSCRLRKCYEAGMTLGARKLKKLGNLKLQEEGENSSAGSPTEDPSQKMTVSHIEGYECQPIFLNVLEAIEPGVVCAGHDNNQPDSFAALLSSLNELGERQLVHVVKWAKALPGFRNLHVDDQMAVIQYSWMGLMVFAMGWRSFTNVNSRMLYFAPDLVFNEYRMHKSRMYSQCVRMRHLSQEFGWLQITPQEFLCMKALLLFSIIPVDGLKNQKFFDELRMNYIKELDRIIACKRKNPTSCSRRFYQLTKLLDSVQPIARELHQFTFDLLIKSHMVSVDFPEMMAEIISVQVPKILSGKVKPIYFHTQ
Format: functional.

A further assay concerns the target Histamine H1 receptor (Homo sapiens, UniProt P35367). Format: functional, cell-based.
A further assay deals with D(1A) dopamine receptor (Homo sapiens, UniProt P21728). Format: functional, cell-based.
D(1A) dopamine receptor, sequence (P21728 whole entry): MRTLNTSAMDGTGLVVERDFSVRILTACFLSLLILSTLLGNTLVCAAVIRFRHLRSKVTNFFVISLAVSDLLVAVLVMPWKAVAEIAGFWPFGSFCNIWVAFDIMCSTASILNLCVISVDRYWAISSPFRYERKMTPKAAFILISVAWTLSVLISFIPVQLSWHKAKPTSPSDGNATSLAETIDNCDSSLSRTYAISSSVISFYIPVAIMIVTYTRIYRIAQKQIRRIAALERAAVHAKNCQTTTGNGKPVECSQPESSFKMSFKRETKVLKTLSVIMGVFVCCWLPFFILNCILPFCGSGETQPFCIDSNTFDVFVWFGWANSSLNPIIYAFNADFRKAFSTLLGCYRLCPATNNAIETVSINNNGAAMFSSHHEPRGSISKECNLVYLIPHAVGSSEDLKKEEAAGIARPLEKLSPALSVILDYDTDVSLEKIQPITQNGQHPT
For assay [2], the target named is Epidermal growth factor receptor (Homo sapiens, UniProt P00533). Format: functional.
Epidermal growth factor receptor, sequence (P00533 whole entry): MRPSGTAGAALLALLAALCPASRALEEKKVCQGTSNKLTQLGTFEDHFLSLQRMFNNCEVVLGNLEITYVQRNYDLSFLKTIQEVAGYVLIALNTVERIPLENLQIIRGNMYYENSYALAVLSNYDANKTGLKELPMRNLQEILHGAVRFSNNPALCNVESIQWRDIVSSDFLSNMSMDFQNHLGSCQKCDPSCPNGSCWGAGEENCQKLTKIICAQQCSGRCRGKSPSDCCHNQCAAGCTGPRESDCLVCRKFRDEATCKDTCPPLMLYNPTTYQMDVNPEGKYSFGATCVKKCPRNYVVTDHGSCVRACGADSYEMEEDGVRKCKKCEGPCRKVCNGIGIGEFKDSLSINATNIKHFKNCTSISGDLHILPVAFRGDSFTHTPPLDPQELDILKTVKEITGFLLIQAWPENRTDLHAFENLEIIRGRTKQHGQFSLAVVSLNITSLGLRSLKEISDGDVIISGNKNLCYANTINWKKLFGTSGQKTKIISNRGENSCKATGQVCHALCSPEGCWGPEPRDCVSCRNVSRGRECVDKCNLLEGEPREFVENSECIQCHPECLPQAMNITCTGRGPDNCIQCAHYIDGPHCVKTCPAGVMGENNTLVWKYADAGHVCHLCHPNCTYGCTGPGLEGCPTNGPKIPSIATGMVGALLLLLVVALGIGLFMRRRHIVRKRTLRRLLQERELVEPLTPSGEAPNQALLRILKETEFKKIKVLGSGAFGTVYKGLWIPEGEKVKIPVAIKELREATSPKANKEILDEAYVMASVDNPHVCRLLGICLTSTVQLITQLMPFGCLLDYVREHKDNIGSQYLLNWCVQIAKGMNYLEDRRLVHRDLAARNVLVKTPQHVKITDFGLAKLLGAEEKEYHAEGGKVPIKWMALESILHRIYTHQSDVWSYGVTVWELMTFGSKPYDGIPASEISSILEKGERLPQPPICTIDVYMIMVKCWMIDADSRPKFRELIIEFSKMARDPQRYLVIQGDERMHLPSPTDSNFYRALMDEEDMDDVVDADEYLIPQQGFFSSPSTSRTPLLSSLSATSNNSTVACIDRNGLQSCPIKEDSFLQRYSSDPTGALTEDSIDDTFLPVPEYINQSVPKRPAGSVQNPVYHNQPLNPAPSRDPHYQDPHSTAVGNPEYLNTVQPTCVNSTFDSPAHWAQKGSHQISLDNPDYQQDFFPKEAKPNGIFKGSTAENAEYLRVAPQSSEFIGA
In the next assay the target is T2, Estrogen receptor (Homo sapiens, UniProt P03372).
T2 sequence (P03372 whole entry): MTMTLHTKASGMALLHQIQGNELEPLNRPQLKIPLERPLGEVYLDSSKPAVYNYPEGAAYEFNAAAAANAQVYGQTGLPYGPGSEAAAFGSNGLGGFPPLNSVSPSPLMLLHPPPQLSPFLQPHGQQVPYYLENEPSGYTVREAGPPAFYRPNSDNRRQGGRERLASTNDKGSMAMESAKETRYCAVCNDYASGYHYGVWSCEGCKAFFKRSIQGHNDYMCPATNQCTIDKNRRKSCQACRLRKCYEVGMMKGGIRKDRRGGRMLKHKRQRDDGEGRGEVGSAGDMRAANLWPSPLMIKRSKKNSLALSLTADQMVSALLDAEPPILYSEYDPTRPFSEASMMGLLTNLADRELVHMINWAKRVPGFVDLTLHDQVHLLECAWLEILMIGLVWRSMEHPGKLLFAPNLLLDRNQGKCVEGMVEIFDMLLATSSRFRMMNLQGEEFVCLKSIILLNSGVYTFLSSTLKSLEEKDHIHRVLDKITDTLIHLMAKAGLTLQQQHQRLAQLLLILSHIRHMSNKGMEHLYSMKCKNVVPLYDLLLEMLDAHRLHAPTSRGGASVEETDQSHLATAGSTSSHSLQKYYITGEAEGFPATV
Format: functional.

The target of assay [3] is T3, Nuclear receptor subfamily 1 group I member 3 (Homo sapiens, UniProt Q14994).
T3 sequence (Q14994 whole entry): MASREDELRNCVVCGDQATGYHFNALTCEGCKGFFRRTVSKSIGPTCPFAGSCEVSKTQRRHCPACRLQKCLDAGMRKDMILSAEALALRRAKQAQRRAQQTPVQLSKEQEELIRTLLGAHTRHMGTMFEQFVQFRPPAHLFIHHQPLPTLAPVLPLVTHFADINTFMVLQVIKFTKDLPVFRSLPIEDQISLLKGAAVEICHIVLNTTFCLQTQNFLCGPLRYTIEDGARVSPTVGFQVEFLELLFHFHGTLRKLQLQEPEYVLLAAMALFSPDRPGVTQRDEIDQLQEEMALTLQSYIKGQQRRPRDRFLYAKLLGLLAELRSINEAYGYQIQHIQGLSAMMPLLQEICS
Format: functional.

Assay [4] addresses T4, Peroxisome proliferator-activated receptor alpha (Homo sapiens, UniProt Q07869).
T4 sequence (Q07869 whole entry): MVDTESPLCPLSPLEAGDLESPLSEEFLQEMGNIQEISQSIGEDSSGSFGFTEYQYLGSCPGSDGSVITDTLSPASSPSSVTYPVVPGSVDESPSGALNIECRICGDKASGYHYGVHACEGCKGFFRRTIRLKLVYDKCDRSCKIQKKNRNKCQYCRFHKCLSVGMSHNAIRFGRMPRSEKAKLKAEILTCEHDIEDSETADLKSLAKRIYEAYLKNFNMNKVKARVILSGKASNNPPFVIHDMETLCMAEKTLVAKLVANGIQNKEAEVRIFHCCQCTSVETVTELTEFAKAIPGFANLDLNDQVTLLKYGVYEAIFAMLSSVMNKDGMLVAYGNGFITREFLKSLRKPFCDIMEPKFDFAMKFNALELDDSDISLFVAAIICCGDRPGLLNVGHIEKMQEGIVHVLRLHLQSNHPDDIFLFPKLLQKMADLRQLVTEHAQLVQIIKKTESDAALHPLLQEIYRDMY
Format: functional.

Assay [5] has as its target T1, Androgen receptor.
The target in assay [6] is Voltage-dependent L-type calcium channel subunit alpha-1C (Homo sapiens, UniProt Q13936). Format: functional, cell-based.
Voltage-dependent L-type calcium channel subunit alpha-1C, sequence (Q13936 whole entry): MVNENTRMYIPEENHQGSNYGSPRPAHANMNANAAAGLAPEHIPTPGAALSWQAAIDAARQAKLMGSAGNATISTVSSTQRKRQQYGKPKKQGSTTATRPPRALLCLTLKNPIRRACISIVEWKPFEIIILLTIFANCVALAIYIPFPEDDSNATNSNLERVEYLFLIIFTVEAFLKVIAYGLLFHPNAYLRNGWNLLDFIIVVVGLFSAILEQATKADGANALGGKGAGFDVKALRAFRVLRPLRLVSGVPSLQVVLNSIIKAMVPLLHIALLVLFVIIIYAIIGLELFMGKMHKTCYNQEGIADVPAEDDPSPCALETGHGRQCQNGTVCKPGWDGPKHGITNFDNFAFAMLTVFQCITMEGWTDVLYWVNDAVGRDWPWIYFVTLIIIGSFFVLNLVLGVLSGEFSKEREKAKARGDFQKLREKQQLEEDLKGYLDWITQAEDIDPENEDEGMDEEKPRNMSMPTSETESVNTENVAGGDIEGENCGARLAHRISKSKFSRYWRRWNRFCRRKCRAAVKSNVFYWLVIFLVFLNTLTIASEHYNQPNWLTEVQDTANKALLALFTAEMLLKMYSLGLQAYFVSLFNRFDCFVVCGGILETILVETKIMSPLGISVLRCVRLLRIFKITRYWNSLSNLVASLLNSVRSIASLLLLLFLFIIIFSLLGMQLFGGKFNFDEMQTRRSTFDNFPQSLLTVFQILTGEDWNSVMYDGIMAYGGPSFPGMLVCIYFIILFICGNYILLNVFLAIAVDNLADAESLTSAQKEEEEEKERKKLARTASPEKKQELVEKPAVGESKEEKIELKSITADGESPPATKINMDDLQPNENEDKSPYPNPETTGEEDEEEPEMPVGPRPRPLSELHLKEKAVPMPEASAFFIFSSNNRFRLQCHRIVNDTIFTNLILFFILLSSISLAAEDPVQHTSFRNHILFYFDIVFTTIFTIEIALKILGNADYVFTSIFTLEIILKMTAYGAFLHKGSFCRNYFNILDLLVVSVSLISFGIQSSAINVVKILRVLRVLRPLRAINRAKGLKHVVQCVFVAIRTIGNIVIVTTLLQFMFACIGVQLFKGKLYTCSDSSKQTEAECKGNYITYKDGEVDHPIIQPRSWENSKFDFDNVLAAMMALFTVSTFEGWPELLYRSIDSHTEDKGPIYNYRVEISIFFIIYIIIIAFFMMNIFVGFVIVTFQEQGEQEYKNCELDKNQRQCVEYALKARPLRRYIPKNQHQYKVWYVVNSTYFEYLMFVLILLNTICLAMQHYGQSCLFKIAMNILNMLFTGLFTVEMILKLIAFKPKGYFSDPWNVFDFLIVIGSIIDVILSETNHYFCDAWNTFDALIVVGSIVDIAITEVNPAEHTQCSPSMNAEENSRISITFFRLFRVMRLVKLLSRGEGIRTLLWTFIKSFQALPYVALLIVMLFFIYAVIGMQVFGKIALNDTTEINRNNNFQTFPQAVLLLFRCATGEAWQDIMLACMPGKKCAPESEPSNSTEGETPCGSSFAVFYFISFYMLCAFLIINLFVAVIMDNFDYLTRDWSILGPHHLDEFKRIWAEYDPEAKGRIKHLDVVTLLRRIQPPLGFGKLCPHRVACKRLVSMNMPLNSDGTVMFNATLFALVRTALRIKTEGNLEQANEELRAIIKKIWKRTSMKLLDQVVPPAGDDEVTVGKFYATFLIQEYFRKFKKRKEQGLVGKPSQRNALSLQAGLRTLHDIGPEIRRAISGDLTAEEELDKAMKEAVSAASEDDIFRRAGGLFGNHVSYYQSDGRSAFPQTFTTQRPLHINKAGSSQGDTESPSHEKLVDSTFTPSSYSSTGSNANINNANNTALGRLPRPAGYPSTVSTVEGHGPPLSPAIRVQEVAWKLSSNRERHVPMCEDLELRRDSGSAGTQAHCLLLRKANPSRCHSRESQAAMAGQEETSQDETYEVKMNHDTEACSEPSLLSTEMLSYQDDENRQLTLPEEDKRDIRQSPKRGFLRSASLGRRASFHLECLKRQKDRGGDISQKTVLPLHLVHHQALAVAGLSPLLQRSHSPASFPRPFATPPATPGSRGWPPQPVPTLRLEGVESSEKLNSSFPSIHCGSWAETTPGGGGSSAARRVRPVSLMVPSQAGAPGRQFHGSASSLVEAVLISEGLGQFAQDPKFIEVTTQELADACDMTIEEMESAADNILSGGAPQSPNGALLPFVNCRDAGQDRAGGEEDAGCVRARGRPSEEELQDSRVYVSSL
Assay [7] deals with Hydroxycarboxylic acid receptor 2 (Homo sapiens, UniProt Q8TDS4).
Hydroxycarboxylic acid receptor 2, sequence (Q8TDS4 whole entry): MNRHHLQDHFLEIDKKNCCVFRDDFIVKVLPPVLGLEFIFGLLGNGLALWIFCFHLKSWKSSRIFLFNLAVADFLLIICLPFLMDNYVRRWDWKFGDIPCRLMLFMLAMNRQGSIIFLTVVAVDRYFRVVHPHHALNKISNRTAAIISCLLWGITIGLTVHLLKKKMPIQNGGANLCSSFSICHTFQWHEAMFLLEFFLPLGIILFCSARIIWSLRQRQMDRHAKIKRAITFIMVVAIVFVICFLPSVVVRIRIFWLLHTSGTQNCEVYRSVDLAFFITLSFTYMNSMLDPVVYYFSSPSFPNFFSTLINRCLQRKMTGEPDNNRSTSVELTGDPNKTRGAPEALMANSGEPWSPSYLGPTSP
Note: assay procedure not described here.

Histamine H1 receptor, sequence (P35367 whole entry): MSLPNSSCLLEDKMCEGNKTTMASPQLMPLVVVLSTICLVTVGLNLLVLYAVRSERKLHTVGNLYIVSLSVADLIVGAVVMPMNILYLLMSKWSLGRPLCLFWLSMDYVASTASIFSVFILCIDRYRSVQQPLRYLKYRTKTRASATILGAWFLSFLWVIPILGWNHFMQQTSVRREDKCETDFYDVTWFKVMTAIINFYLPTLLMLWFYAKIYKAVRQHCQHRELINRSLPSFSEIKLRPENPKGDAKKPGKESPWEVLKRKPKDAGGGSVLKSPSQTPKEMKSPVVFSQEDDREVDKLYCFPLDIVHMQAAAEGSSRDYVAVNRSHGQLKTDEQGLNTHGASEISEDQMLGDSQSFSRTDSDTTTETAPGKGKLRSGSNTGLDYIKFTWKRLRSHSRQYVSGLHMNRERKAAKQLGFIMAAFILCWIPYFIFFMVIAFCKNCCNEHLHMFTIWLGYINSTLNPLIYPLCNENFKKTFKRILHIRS

Usually AC50 stands for the midpoint of the concentration-response curve, whichever way the signal moves. On to `C[C@@H](NCCCc1cccc(C(F)(F)F)c1)c1cccc2ccccc12`, for which the AC50 at Androgen receptor [1] and on Histamine H1 receptor was above 30 µM each time. For `COc1ccc(CC2c3cc(OC)c(OC)cc3CC[N+]2(C)CCC(=O)OCCCCCOC(=O)CC[N+]2(C)CCc3cc(OC)c(OC)cc3C2Cc2ccc(OC)c(OC)c2)cc1OC` (stereo not drawn), the concentration at half-maximal activity (AC50) on Androgen receptor [1] was above 30 µM.

Take `CCN1CCN(Cc2ccc(Nc3ncc(F)c(-c4cc(F)c5nc(C)n(C(C)C)c5c4)n3)nc2)CC1` [ABEMACICLIB]: the figures for the half-maximal activity concentration (AC50) (at D(1A) dopamine receptor; in assay [2]; at Estrogen receptor) were above 30 µM, 9.5 µM and above 30 µM, respectively. As for `COc1ccccc1Oc1c(NS(=O)(=O)c2ccc(C(C)(C)C)cc2)nc(-c2ncccn2)nc1OCCO` [BOSENTAN], the results for the half-maximal activity concentration (AC50) (on Histamine H1 receptor; in assay [3]; in assay [4]) were above 30 µM, 2.1 µM and above 30 µM, respectively. Take `COc1cc2nccc(Oc3ccc(NC(=O)C4(C(=O)Nc5ccc(F)cc5)CC4)cc3)c2cc1OC` [CABOZANTINIB]: the AC50 on D(1A) dopamine receptor was 13 µM; at Estrogen receptor, above 30 µM. Regarding `CC(C(=O)O)c1ccc2c(c1)[nH]c1ccc(Cl)cc12` (stereo not drawn) [CARPROFEN], the concentration at half-maximal activity (AC50) in [3] and in assay [4] was above 30 µM in each case.

On to `COc1ccccc1OCCNCC(O)COc1cccc2[nH]c3ccccc3c12` (stereo not drawn) [CARVEDILOL], for which the half-maximal activity concentration (AC50) at Androgen receptor [1] and on Androgen receptor [5] was above 30 µM each time. In the case of `O=C1CCc2cc(OCCCCc3nnnn3C3CCCCC3)ccc2N1` [CILOSTAZOL], the concentration at half-maximal activity (AC50) in assay [6] is above 50 µM. `C[C@@H](Oc1cc(-c2cnn(C3CCNCC3)c2)cnc1N)c1c(Cl)ccc(F)c1Cl` [CRIZOTINIB]: the concentration at half-maximal activity (AC50) (in assay [6]; at D(1A) dopamine receptor; on Estrogen receptor) was above 30 µM in each case.

Regarding `CC(C)N(CCC(C(N)=O)(c1ccccc1)c1ccccn1)C(C)C` (stereo not drawn) [DISOPYRAMIDE], the results for the AC50 (in assay [6]; on Histamine H1 receptor) were above 50 µM and above 30 µM, respectively. For `C[C@H]1c2cccc(O)c2C(=O)C2=C(O)[C@]3(O)C(=O)C(C(N)=O)=C(O)[C@@H](N(C)C)[C@@H]3[C@@H](O)[C@@H]21` [DOXYCYCLINE], the half-maximal activity concentration (AC50) in assay [7] is above 10 µM. On Estrogen receptor, `CN1C[C@H](C(=O)N[C@]2(C)O[C@@]3(O)[C@@H]4CCCN4C(=O)[C@H](Cc4ccccc4)N3C2=O)C=C2c3cccc4[nH]cc(c34)C[C@H]21` [ERGOTAMINE] came in with an AC50 above 30 µM. For the compound `CC(C)Cc1ccc(C(C)C(=O)O)cc1` (stereo not drawn) [IBUPROFEN], in assay [4], the AC50 was above 30 µM.

Compound `CC(=O)O[C@]1(C(C)=O)CC[C@H]2[C@@H]3C=C(C)C4=CC(=O)CC[C@@H]4[C@H]3CC[C@@]21C` [NOMEGESTROL ACETATE] yielded a concentration at half-maximal activity (AC50) at Androgen receptor [1] above 30 µM. Compound `C=C[C@H]1C[N@@]2CC[C@H]1C[C@@H]2[C@@H](O)c1ccnc2ccc(OC)cc12` [QUINIDINE] yielded an AC50 at Histamine H1 receptor above 30 µM.

Consider `CO[C@H]1/C=C/O[C@@]2(C)Oc3c(C)c(O)c4c(O)c(c(/C=N/N5CCN(C)CC5)c(O)c4c3C2=O)NC(=O)/C(C)=C\C=C\[C@H](C)[C@H](O)[C@@H](C)[C@@H](O)[C@@H](C)[C@H](OC(C)=O)[C@@H]1C` [RIFAMPIN], for which the AC50 in assay [3] and in assay [4] was above 30 µM throughout.

With `CN(C)CCc1c[nH]c2ccc(Cn3cncn3)cc12` [RIZATRIPTAN], the values for the AC50 at Androgen receptor [5] and on Histamine H1 receptor were above 30 µM and 20 µM, respectively. For the compound `CC(C)c1nc(N(C)S(C)(=O)=O)nc(-c2ccc(F)cc2)c1/C=C/[C@@H](O)C[C@@H](O)CC(=O)O` [ROSUVASTATIN], the half-maximal activity concentration (AC50) on Estrogen receptor and on Histamine H1 receptor was above 30 µM throughout.

On to `N[C@@H](CC(=O)N1CCn2c(nnc2C(F)(F)F)C1)Cc1cc(F)c(F)cc1F` [SITAGLIPTIN], for which the half-maximal activity concentration (AC50) was above 50 µM in assay [6] and above 30 µM at Estrogen receptor. Compound `OC[C@H]1O[C@@](CO)(O[C@H]2O[C@H](CO)[C@@H](O)[C@H](O)[C@H]2O)[C@@H](O)[C@@H]1O` [SUCROSE] returned an AC50 at Histamine H1 receptor above 30 µM. In assay [7], `Nc1ccc(S(=O)(=O)Nc2nccs2)cc1` [SULFATHIAZOLE] gave an AC50 above 10 µM.

Regarding `CCN(CC)CCNC(=O)c1c(C)[nH]c(/C=C2\C(=O)Nc3ccc(F)cc32)c1C` [SUNITINIB], the AC50 in [6] is above 50 µM; in assay [3], above 30 µM; in assay [4] it was above 30 µM. In the case of `C=CC[C@@H]1/C=C(\C)C[C@H](C)C[C@H](OC)[C@H]2O[C@@](O)(C(=O)C(=O)N3CCCC[C@H]3C(=O)O[C@H](/C(C)=C/[C@@H]3CC[C@@H](O)[C@H](OC)C3)[C@H](C)[C@@H](O)CC1=O)[C@H](C)C[C@@H]2OC` [TACROLIMUS ANHYDROUS], the half-maximal activity concentration (AC50) at Androgen receptor [5] is above 30 µM; in [6] it was above 50 µM; at D(1A) dopamine receptor, above 30 µM; in [2] it was above 30 µM; at Estrogen receptor, above 30 µM. Take `C[C@H](CCC(=O)O)[C@H]1CC[C@H]2[C@@H]3[C@@H](O)C[C@@H]4C[C@H](O)CC[C@]4(C)[C@H]3CC[C@]12C` [URSODIOL]: the half-maximal activity concentration (AC50) (at D(1A) dopamine receptor; in [2]; on Estrogen receptor) was above 30 µM in each case.

In assay [7], `Cc1onc(-c2ccccc2)c1-c1ccc(S(N)(=O)=O)cc1` [VALDECOXIB] yielded an AC50 above 10 µM.
